Experimental data reported in PubChem BioAssay (NCI).
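Growth conditions: 96-well plates. Treatment: test compound, 48 hours, 5 concentrations. Analysis: linear interpolation between bracketing concentrations; unreached endpoints set to highest concentration. TGI is the concentration that stops growth completely.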

Key:
Test in all cases: growth of human tumour cells (NCI), 48 h
MOLT-4 leukemia = test system: MOLT-4 leukemia
HT29 colon = test system: HT29 colon
CCRF-CEM leukemia = test system: CCRF-CEM leukemia
HOP-92 NSCLC = test system: HOP-92 NSCLC
A498 renal = test system: A498 renal
NCI-H226 lung = test system: NCI-H226 lung
NCI-H522 lung = test system: NCI-H522 lung
LOX IMVI melanoma = test system: LOX IMVI melanoma
SK-MEL-2 melanoma = test system: SK-MEL-2 melanoma
UO-31 renal = test system: UO-31 renal

Row | Structure (SMILES) | TGI (MOLT-4 leukemia) [µM] | TGI (HT29 colon) [µM] | TGI (CCRF-CEM leukemia) [µM] | TGI (HOP-92 NSCLC) [µM] | TGI (A498 renal) [µM] | TGI (NCI-H226 lung) [µM] | TGI (NCI-H522 lung) [µM] | TGI (LOX IMVI melanoma) [µM] | TGI (SK-MEL-2 melanoma) [µM] | TGI (UO-31 renal) [µM]
1 | N#Cc1c(Cl)nc2ccccc2c1N=[N+]=[N-] | 3.17 | 3.26 | 4.24 | 3.32 | 36.2 | 33.1 | 4.62 | 3.47 | 5.12 | 9.4
2 | O=S(=O)(c1ccccc1)n1cc(C[P+](c2ccccc2)(c2ccccc2)c2ccccc2)c2ccccc21 | 23.6 | 13.4 | 12.8 | 5.53 | 30 | 18.1 | 11.3 | 13.6 | 5.87 | 13.1
3 | CN(C)c1ccc(-c2ccc(N(C)C)c3n[se]nc23)c2n[se]nc12 | > 100 | > 100 | > 100 | > 100 | > 100 | > 100 | > 100 | > 100 | > 100 | > 100
4 | CCCCCCOc1ccc(C(=O)N(C)O)cc1 | 50.4 | 27.5 | 23.5 | > 100 | > 100 | 59.5 | 90.6 | > 100 | > 100 | 60.9
5 | Cc1sc(C)c2c1C(=O)CC2N (stereo not given) | 23.7 | > 59.3 | 6.68 | 40.7 | > 100 | > 54.9 | 10.9 | 32.2 | > 100 | 29.5
6 | CN(C)CC1CCCCCCCCCC(CN(C)C)C1=O (stereo not given) | > 25.7 | > 43.8 | > 26.4 | > 48.4 | > 46.2 | > 60.3 | 10.5 | > 37.2 | > 67.4 | > 53.3
7 | O=C(O)C1(Cc2ccc3c(c2)CCC3)Cc2ccccc2C1 | > 100 | > 100 | > 100 | > 100 | > 100 | > 100 | > 100 | > 100 | > 100 | > 100
8 | N#Cc1nc(-c2ccccn2)oc1N | > 100 | > 100 | > 100 | > 100 | > 100 | > 100 | > 100 | > 100 | > 100 | > 100
9 | COc1ccc(/C=C2/NC(=S)N=C2Cl)cc1 | > 100 | > 100 | > 100 | > 100 | > 100 | > 100 | > 100 | > 100 | > 100 | > 100
10 | COC(=O)C1=C(C(=O)OC)SC(=C2S[C@@H]3[C@@H]4C[C@H]([C@@H]3S2)[C@H]2C(=O)OC(=O)[C@@H]42)S1 | > 100 | > 100 | > 100 | > 100 | > 100 | > 100 | > 100 | > 100 | > 100 | > 100
11 | O=C(NCCN1CCCCC1)c1ccc(I)cc1 | > 100 | > 100 | > 100 | > 100 | 69.3 | > 100 | > 100 | > 100 | > 100 | > 100
12 | N#Cc1c(O)c(N=Nc2ccc(Cl)cc2)c(=O)n2c1[nH]c1ccccc12 | > 100 | > 100 | > 100 | 76.9 | > 100 | > 100 | > 100 | > 100 | > 100 | > 100
13 | CN(C)C=NCCN1CCOCC1 | > 100 | > 100 | > 100 | > 100 | > 100 | > 100 | > 100 | > 100 | > 100 | > 100
14 | C=C1C(=O)OC2CC(=C)C3CC=C(C)C3CC12 (stereo not given) | 46.8 | 28.5 | > 100 | 28.7 | > 100 | 43 | 36.2 | 23.5 | 26.5 | 29.3
15 | CC1(C)C2CC3C4CC5(Nc6ccccc6C5N41)[C@]3(C)CC2=O (stereo not given in full) | > 50 | > 50 | > 50 | > 50 | > 50 | > 50 | > 50 | > 50 | > 50 | > 50
16 | O=C1N[C@@H]2c3c(Br)sc(Br)c3C(=O)[C@@H]2O1 | 4.61 | 3.59 | 3.94 | 11.8 | 30.4 | 28.8 | 1.53 | 3.54 | 37.1 | 24.8
17 | CN1C=Cc2nccc3cc4c(c1c23)OCO4 | > 93 | 27.5 | > 100 | > 68.5 | 20.5 | 43.5 | 8.2 | > 100 | 11.3 | 34.9
